Measurements as given in paper PMC5756575, “In Vitro Biotransformation, Safety, and Chemopreventive Action of Novel 8-Methoxy-Purine-2,6-Dione Derivatives” (Applied Biochemistry and Biotechnology, 2017).
Read-outs that look alike come from different tables or passages of the source.

Tests used:
Vibrio harveyi BB7X [1] = assay: Vibrio harveyi antimutagenicity assay against NQNO, BB7X; assay type: cell-based; details: compound 40 ng/mL + NQNO 40 ng/mL
From the text: (§1) Four Vibrio harveyi strains were used in this study: a wild-type BB7 (naturally found in the Baltic Sea) and three genetically modified strains, namely BB7M (obtained by the introduction of pAB1273 plasmid containing the genes mucA and mucB to enhance the error-prone DNA repair), BB7X (hypersensitive to UV radiation after genetic modification with Tn5TpMCS), and BB7XM (containing the two abovementioned modifications). These strains were kindly provided by Prof. G. Węgrzyn (Department of Molecular Biology, University of Gdańsk, Poland).
(§2) It causes point mutations at the genome as it induces G:C → A:T transitions in Vibrio harveyi strains and in other bacteria such as Escherichia coli and S. typhimurium. […] Next, its working solution was prepared in sterile water, being 40 ng/mL its final concentration.
(§3) Procedure followed in the V. harveyi antimutagenicity assay was similar to the mutagenicity method described before. […] The results were expressed as the inhibition percentage of mutagenic effect, which was calculated with the formula: 100 − [(R 1/R 2) × 100], where R 1 is the number of revertants per plate in the presence of both mutagen and tested substance, and R 2 is the number of revertants per plate in the presence of mutagen. […] S. typhimurium antimutagenicity assay was based on similar assumptions as the V. harveyi antimutagenicity test. In this case, the chemopreventive activity was determined at two concentrations of a tested compounds and a standard mutagen, i.e., 40 and 500 ng/mL.

[2] = test system: Salmonella typhimurium TA100; assay: Ames mutagenicity test; assay type: cell-based
Method: From them, 0.2 mM working solutions were prepared by dilution with water. […]
(§4) In the Ames test, Salmonella typhimurium TA100 strain was used. This strain has a base-pair substitution that can be reverted by mutations at GC pairs. In addition, it contains mutations at uvrB-bio and rfa genes to eliminate excision repair mechanisms and to make the bacteria more permeable to chemicals, respectively. Finally, TA100 also includes pKM101 plasmid, which enhances both chemical and UV-induced mutagenesis via an increase in the error-prone recombinational DNA repair pathway. TA100 strain of S. typhimurium was provided by Dr. T. Nohmi (Division of Genetics and Mutagenesis, National Institute of Hygienic Sciences, Tokyo, Japan). V. harveyi and S. typhimurium bacterial cultures were maintained at 30 and 37 °C, respectively.
It causes point mutations at the genome as it induces G:C → A:T transitions in Vibrio harveyi strains and in other bacteria such as Escherichia coli and S. typhimurium. […]
S. typhimurium was cultivated in a fresh medium 12 h prior to a test. To perform mutagenicity assay, 100 μL of an overnight culture (containing approx. 1 × 10^8 to 2 × 10^8 bacteria) were inoculated along with 50 μL of a tested compound in 2 mL of top agar supplemented with traces of histidine and of biotin. Then the mixture was added over the surface of GM agar plates and was left incubating 48 h at 37 °C. Afterwards, the colonies were counted manually.

Vibrio harveyi BB7XM [3] = assay type: cell-based; details: compound 40 ng/mL + NQNO 40 ng/mL
From the text: as §1, §2, §3

Vibrio harveyi BB7 [4] = details: BB7, 40 ng/mL
Method: (§5) From them, 0.2 mM working solutions were prepared by dilution with water. […] Working solutions were prepared by 1:100 dilution of stock solution in water, and final compound concentration assayed was 40 ng/mL.
as §1, §2
(§6) To perform the V. harveyi mutagenicity test, 10 μL of a working solution of the tested compound (100 μg/mL) were added to V. harveyi bacterial culture (OD600 = 0.1) in NaCl-containing BOSS liquid medium, being 40 ng/mL the final concentration of the tested compound. […] Then, an inoculum containing 5 × 10^6 cells was added to solid BOSS agar plate supplemented with neomycin sulfate at a final concentration of 100 μg/mL. Samples were left incubating 48 h at 30 °C, and revertant colonies were counted manually.

Vibrio harveyi BB7X [5] = details: 40 ng/mL
Method: as §5, §1, §2, §6

Vibrio harveyi BB7M [6] = details: 40 ng/mL
Method: as §5, §1, §2, §6

Vibrio harveyi BB7XM [7] = assay: Vibrio harveyi mutagenicity assay, BB7XM; assay type: cell-based; details: 40 ng/mL
Method: as §5, §1, §2, §6

Vibrio harveyi BB7M [8] = assay: Vibrio harveyi antimutagenicity assay against NQNO, BB7M; assay type: cell-based; details: compound 40 ng/mL + NQNO 40 ng/mL
From the text: as §1, §2, §3

rat liver microsomes = assay: Microsomal stability assay; assay type: in vitro ADME; details: rat liver microsomes, 1 h of incubation
Method: Compounds 1 and 3 were studied in a biotransformation assay using rat liver microsomes following procedures described previously. The reagents used in this assay were levallorphan (internal standard) and NADPH-regenerating system, which contained phosphate buffer (pH 7.4), NADP^+, glucose-6-phosphate, and glucose-6-phosphate dehydrogenase. The final protein concentration in the assay was 0.4 mg/mL. Compounds 1 and 3 were tested at a final concentration of 20 μM.
The amount of a parental compound remaining in a solution after biotransformation was monitored using LC-MS/MS as described previously in “Cunninghamella Biotransformation Assay.” Graphs representing ln of percentage of parent compound remaining versus incubation time were drawn to calculate in vitro half-time (t1/2) from the slope of linear regression. To obtain intrinsic clearance (Clint) of a tested compound in rat liver microsomal assay, t1/2 previously calculated was substituted at the equation Clint = [(Vmic/Pmic) × 0.693/t1/2], being Vmic and Pmic the volume of incubation in microliters and the amount of incubated protein in milligrams, respectively.
Agilent 1100 HPLC system (Agilent Technologies, Waldbronn, Germany) equipped with a Xbridge™ C18 analytical column (2.1 × 30 mm, […]; Waters, Dublin, Ireland) was used in the chromatographic separation of LC-MS/MS analysis. An elution gradient of acetonitrile and water, with 0.1% of formic acid, was used as a mobile phase. MS spectra were taken at Applied Biosystems MDS Sciex API 200 triple quadrupole mass analyzer (Concord, Ontario, Canada) with an electrospray ionization (ESI) interface between HPLC and MS.

[9] = test system: Salmonella typhimurium TA100; assay: S. typhimurium antimutagenicity assay against NQNO; assay type: cell-based; details: for Number of revertants per plate, Mean ± SD: antimutagenicity, NQNO line = NQNO as a single compound
From the text: as §4, §2, §3

Vibrio harveyi BB7 [10] = assay: Vibrio harveyi antimutagenicity assay against NQNO, BB7; assay type: cell-based
From the text: as §1, §2, §3

[11] = antimutagenicity, NQNO line = NQNO as a single compound
[12] = TA100, 500 ng/mL (NQNO control stated as 40 ng/mL in method)
[13] = TA100, compound and NQNO 40 ng/mL
[14] = TA100, compound and NQNO 500 ng/mL

COc1nc2c(c(=O)n(C)c(=O)n2C)n1CC(=O)O [Compound 1, 2-(8-methoxy-1,3-dimethyl-2,6-dioxo-purin-7-yl)acetic acid]
Number of revertants per plate, Mean ± SD (Vibrio harveyi BB7X [1]; [11]): 28 ± 7
% inhibition of NQNO mutagenicity (Vibrio harveyi BB7X [1]): 74%
Number of revertants per plate, Mean ± SD ([2]; TA100, 40 ng/mL): 12 ± 5
MI (mutagenicity index) ([2]; TA100, 40 ng/mL, mutagenic if MI >2.0): 0.3
MI (mutagenicity index) [2, 12]: 0.6
Number of revertants per plate, Mean ± SD [2, 12]: 16 ± 3
Number of revertants per plate, Mean ± SD (Vibrio harveyi BB7XM [3]; [11]): 69 ± 10
% inhibition of NQNO mutagenicity (Vibrio harveyi BB7XM [3]): 10%
MI (mutagenicity index) (Vibrio harveyi BB7 [4]; mutagenic if MI above 2.0): 0.9
Number of revertants per plate, Mean ± SD (Vibrio harveyi BB7 [4]; mutagenicity): 12 ± 2
MI (mutagenicity index) (Vibrio harveyi BB7X [5]; mutagenic if MI above 2.0): 1.4
Number of revertants per plate, Mean ± SD (Vibrio harveyi BB7X [5]; mutagenicity): 30 ± 1
MI (mutagenicity index) (Vibrio harveyi BB7M [6]; mutagenic if MI above 2.0): 1.2
Number of revertants per plate, Mean ± SD (Vibrio harveyi BB7M [6]; mutagenicity): 33 ± 8
MI (mutagenicity index) (Vibrio harveyi BB7XM [7]; mutagenic if MI above 2.0): 1.1
Number of revertants per plate, Mean ± SD (Vibrio harveyi BB7XM [7]; mutagenicity): 37 ± 11
Number of revertants per plate, Mean ± SD (Vibrio harveyi BB7M [8]; [11]): 60 ± 10
% inhibition of NQNO mutagenicity (Vibrio harveyi BB7M [8]): 39%
metabolic stability in microsomal biotransformation (in words) (rat liver microsomes): metabolically stable
% inhibition of NQNO mutagenicity [9, 13]: 88%
% inhibition of NQNO mutagenicity [9, 14]: 95%
Number of revertants per plate, Mean ± SD [9, 13]: 10 ± 3
Number of revertants per plate, Mean ± SD [9, 14]: 5 ± 3
% inhibition of NQNO mutagenicity (Vibrio harveyi BB7 [10]; BB7, compound 40 ng/mL + NQNO 40 ng/mL): 20%
Number of revertants per plate, Mean ± SD (Vibrio harveyi BB7 [10]; antimutagenicity, BB7, compound 40 ng/mL + NQNO 40 ng/mL, NQNO line = NQNO as a single compound): 44 ± 6
chemopreventive (antimutagenic) effect, class (Vibrio harveyi BB7 [10]; wild BB7 strain, against NQNO): moderate or a close to moderate
